Source: article PMC11124822, “Discovery and Anticancer Screening of Novel Oxindole-Based Derivative Bearing Pyridyl Group as Potent and Selective Dual FLT3/CDK2 Kinase Inhibitor” (Pharmaceuticals, 2024)
Blank lines part the entries; values can stand above or below the compound they belong to.

Assays:
[1] = molecular target: FLT3 kinase; design: method as in PMID 36403191, PMID 37446914; details: cited from earlier work
[2] = tested on: FLT3 ITD-mutated MV4-11 AML cells; design: method as in PMID 36403191, PMID 37446914; details: after 72 h; cited from earlier work
[3] = tested on: CDK6; design: method as in PMID 29357250; details: cited from earlier work
[4] = tested on: CDK4; design: method as in PMID 29357250; details: cited from earlier work
[5] = tested on: MV4-11 cell xenografts; design: method as in PMID 29357250; details: cited from earlier work
[6] = molecular target: T1, CDK2 (Homo sapiens, UniProt P24941); assay: Z'-LYTE kinase assay; format: biochemical; details: three separate experiments ± SD
T1 construct: purchased Invitrogen/Life Technologies
Experimental: (§1) The Z’-LYTE® technology, which relies on FRET (Fluorescence Resonance Energy Transfer) from Invitrogen/Life Technologies, was employed for this evaluation for all kinases except VEGFR-2. The VEGFR-2 kinase assay was conducted in a 96-well streptavidin-coated plate using a recombinant human VEGFR-2/KDR ELISA kit, following the manufacturer’s instructions. […] Statistical significance was assessed using one-way analysis of variance (ANOVA), followed by the Dunnett test; data are represented as means ± SD.

[7] = molecular target: T2, FLT3 (Homo sapiens, UniProt P36888); assay: Z'-LYTE kinase assay; format: biochemical; details: three separate experiments ± SD
T2 construct: purchased Invitrogen/Life Technologies
T2 sequence (P36888 27-993): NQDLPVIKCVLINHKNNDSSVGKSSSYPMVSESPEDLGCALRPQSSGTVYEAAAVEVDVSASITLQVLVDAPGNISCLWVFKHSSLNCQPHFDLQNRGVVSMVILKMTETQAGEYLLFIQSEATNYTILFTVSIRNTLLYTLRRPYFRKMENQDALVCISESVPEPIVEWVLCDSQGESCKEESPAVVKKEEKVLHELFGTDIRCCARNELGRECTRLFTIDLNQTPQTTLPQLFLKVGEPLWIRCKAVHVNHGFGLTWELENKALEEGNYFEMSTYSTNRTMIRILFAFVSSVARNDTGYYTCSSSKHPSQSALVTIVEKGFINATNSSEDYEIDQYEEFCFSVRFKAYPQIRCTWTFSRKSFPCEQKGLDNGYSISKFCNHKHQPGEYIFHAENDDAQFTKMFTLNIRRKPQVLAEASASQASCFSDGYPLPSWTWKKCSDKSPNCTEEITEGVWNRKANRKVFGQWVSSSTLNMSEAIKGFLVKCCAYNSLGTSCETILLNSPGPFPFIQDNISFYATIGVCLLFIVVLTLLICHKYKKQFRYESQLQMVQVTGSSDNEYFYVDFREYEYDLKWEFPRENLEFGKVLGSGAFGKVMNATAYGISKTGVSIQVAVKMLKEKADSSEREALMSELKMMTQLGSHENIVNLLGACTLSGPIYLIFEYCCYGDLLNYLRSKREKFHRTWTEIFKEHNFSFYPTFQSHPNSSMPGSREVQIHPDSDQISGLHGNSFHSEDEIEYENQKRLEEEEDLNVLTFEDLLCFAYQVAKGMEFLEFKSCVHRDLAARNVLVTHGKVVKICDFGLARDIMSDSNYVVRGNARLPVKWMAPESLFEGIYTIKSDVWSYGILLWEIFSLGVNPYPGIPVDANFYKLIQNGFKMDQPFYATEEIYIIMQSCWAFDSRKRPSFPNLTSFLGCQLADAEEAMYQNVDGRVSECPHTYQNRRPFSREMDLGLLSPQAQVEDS
Experimental: as §1

[8] = tested on: MCF-7 breast cancer cell line; design: method as in PMID 36844536; details: cited from earlier work
[9] = tested on: MCF-12A normal breast cell line; design: method as in PMID 36844536; details: cited from earlier work

Compound: COc1cc(C=C2C(=O)Nc3ccccc32)ccc1O [III]
IC50 [1]: 2490 nM
IC50 [2]: 4300 nM

IC50 [6]: 1.99 ± 0.12 nM
IC50 [7]: 0.79 ± 0.08 nM
Compound: CN1CCN(Cc2ccc(NC(=O)c3n[nH]cc3Nc3ncnc4[nH]ccc34)cc2)CC1 [FN-1501, 4-((7H-Pyrrolo[2,3-d]pyrimidin-4-yl)amino)-N-(4-((4-methylpiperazin-1-yl)methyl)phenyl)-1H-pyrazole-3-carboxamide]
IC50 [3]: 1.96 nM
IC50 [4]: 0.85 nM
effectiveness in treating leukemia in mouse models [5]: remarkable effectiveness

Compound: COc1cc(C=C2C(=O)Nc3ccc(Cl)cc32)ccc1OCc1ccccn1 [IV]
IC50 [8]: 17000 nM
impact on the MCF-12A normal breast cell line [9]: no impact
